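Dose response: 5 concentrations. Exposure: 48 h. Format: 96-well plates. Endpoint: linear interpolation; highest concentration if not reached. GI50 marks 50% less growth.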 Activity calls are given as the source filed them. Rule as the data show it: active = GI50 up to about 1.1 µM and inactive = higher.
Assays:
Experiment in all cases: growth of human tumour cells (NCI), 48 h
SNB-78 = tested on: SNB-78
RPMI-8226 = tested on: RPMI-8226
COLO 205 = tested on: COLO 205
IGROV-1 = tested on: IGROV-1
M19-MEL = tested on: M19-MEL
TK-10 = tested on: TK-10
SF-268 = tested on: SF-268
SR = tested on: SR
CAKI-1 = tested on: CAKI-1
SW-620 = tested on: SW-620
HOP-62 = tested on: HOP-62
HCT-15 = tested on: HCT-15
HCC 2998 = tested on: HCC 2998
LXFL 529 = tested on: LXFL 529
SK-OV-3 = tested on: SK-OV-3
HL-60 = tested on: HL-60
RXF 393 = tested on: RXF 393
ACHN = tested on: ACHN
NCI-H23 = tested on: NCI-H23
U-251 = tested on: U-251
NCI-H460 = tested on: NCI-H460
HOP-18 = tested on: HOP-18
UO-31 = tested on: UO-31
SNB-75 = tested on: SNB-75
LOX IMVI = tested on: LOX IMVI
DLD-1 = tested on: DLD-1
SNB-19 = tested on: SNB-19
OVCAR-5 = tested on: OVCAR-5
Malme-3M = tested on: Malme-3M
SK-MEL-2 = tested on: SK-MEL-2
HT-29 = tested on: HT-29
KM-20L2 = tested on: KM-20L2
MOLT-4 = tested on: MOLT-4
SN12C = tested on: SN12C
UACC-62 = tested on: UACC-62
DMS-273 = tested on: DMS-273
SK-MEL-28 = tested on: SK-MEL-28
XF498 = tested on: XF498
OVCAR-3 = tested on: OVCAR-3
K562 = tested on: K562
M14 = tested on: M14
SF-539 = tested on: SF-539
CCRF-CEM = tested on: CCRF-CEM
DMS-114 = tested on: DMS-114
UACC-257 = tested on: UACC-257
NCI-H522 = tested on: NCI-H522
A498 = tested on: A498
OVCAR-8 = tested on: OVCAR-8
SF-295 = tested on: SF-295
KM12 = tested on: KM12
786-0 = tested on: 786-0
NCI-H226 = tested on: NCI-H226
RXF 631 = tested on: RXF 631
OVCAR-4 = tested on: OVCAR-4
EKVX = tested on: EKVX
SK-MEL-5 = tested on: SK-MEL-5
HOP-92 = tested on: HOP-92
HCT-116 = tested on: HCT-116
A549 = tested on: A549

`COc1cc(Br)c(/C=N/N=C(\N)NO)cc1OC` was tested, and the GI50 (SNB-78) was 73.3 µM (inactive), the GI50 (RPMI-8226) was > 100 µM (inactive) and the GI50 (COLO 205) was 11 µM (inactive). For the same compound, the GI50 (IGROV-1) was 30.4 µM (inactive), the GI50 (M19-MEL) was 19.6 µM (inactive) and the GI50 (TK-10) was 7.69 µM (inactive). The GI50 (SF-268) was 8.87 µM (inactive), the GI50 (SR) was 11.8 µM (inactive) and the GI50 (CAKI-1) was 14.7 µM (inactive). For the same compound, the GI50 (SW-620) was 35.1 µM (inactive), the GI50 (HOP-62) was 14.1 µM (inactive) and the GI50 (HCT-15) was 36 µM. The GI50 (HCC 2998) was 12.3 µM (inactive), the GI50 (LXFL 529) was 10.9 µM (inactive) and the GI50 (SK-OV-3) was 10.6 µM (inactive). For the same compound, the GI50 (HL-60) was 26.9 µM (inactive), the GI50 (RXF 393) was 21.9 µM (inactive) and the GI50 (ACHN) was 9.35 µM (inactive). The GI50 (NCI-H23) was 26 µM (inactive), the GI50 (U-251) was 23.4 µM (inactive) and the GI50 (NCI-H460) was 5.22 µM (inactive). The GI50 (HOP-18) was 4.72 µM (inactive), the GI50 (UO-31) was 20.3 µM (inactive) and the GI50 (SNB-75) was 21.3 µM (inactive). The GI50 (LOX IMVI) was 17.6 µM (inactive), the GI50 (DLD-1) was 25.9 µM (inactive) and the GI50 (SNB-19) was 46.3 µM (inactive). The GI50 (OVCAR-5) was 21.8 µM (inactive), the GI50 (Malme-3M) was 21.1 µM (inactive) and the GI50 (SK-MEL-2) was 26.1 µM (inactive). For the same compound, the GI50 (HT-29) was 15 µM (inactive), the GI50 (KM-20L2) was 5.73 µM (inactive) and the GI50 (MOLT-4) was 57.1 µM (inactive). For the same compound, the GI50 (SN12C) was 24.6 µM (inactive), the GI50 (UACC-62) was 11.1 µM (inactive) and the GI50 (DMS-273) was 40.8 µM (inactive). The GI50 (SK-MEL-28) was 17.5 µM (inactive), the GI50 (XF498) was 13.6 µM (inactive) and the GI50 (OVCAR-3) was 33.2 µM (inactive). The GI50 (K562) was 15.7 µM (inactive), the GI50 (M14) was 16.4 µM (inactive) and the GI50 (SF-539) was 24.7 µM (inactive). The GI50 (CCRF-CEM) was 30.1 µM (inactive), the GI50 (DMS-114) was 12.4 µM (inactive) and the GI50 (UACC-257) was 17.3 µM (inactive). The GI50 (NCI-H522) was 15.2 µM (inactive), the GI50 (A498) was 32.8 µM (inactive) and the GI50 (OVCAR-8) was 15.6 µM (inactive). For the same compound, the GI50 (SF-295) was 28.5 µM (inactive), the GI50 (KM12) was 15.5 µM (inactive) and the GI50 (786-0) was 18.4 µM (inactive). For the same compound, the GI50 (NCI-H226) was 10.9 µM (inactive), the GI50 (RXF 631) was 11.6 µM (inactive) and the GI50 (OVCAR-4) was 54.5 µM (inactive). For the same compound, the GI50 (EKVX) was 7.21 µM (inactive), the GI50 (SK-MEL-5) was 6.78 µM (inactive) and the GI50 (HOP-92) was 23.6 µM (inactive). For the same compound, the GI50 (HCT-116) was 15.2 µM (inactive) and the GI50 (A549) was 10.4 µM (inactive).

— ChEMBL document CHEMBL1201862, “PubChem BioAssay data set” (2004)
